Broadly, the Ki is the dissociation constant of the complex between target and ligand, obtained from inhibition or displacement. Low values mean a stronger hold on the target, high ones a looser hold on the target.

Structures are written as SMILES.

The target of the assay is T1, h-GABAA α2β2γ1 (Homo sapiens, UniProt P47869+Q8N1C3).
T1 sequence (P47869 29-451): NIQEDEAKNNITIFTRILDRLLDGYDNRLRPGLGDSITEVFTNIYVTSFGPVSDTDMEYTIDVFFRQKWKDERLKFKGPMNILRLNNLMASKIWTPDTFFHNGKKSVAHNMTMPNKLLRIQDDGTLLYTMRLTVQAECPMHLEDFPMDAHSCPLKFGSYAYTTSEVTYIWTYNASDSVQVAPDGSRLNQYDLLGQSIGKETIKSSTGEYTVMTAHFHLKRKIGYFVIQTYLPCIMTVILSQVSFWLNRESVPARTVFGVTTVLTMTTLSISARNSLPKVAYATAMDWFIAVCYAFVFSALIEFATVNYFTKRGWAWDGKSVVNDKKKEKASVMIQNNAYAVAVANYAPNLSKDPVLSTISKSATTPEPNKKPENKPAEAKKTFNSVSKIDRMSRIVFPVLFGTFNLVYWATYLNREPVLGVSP
T1 sequence (P47870 25-512 partner limits assumed): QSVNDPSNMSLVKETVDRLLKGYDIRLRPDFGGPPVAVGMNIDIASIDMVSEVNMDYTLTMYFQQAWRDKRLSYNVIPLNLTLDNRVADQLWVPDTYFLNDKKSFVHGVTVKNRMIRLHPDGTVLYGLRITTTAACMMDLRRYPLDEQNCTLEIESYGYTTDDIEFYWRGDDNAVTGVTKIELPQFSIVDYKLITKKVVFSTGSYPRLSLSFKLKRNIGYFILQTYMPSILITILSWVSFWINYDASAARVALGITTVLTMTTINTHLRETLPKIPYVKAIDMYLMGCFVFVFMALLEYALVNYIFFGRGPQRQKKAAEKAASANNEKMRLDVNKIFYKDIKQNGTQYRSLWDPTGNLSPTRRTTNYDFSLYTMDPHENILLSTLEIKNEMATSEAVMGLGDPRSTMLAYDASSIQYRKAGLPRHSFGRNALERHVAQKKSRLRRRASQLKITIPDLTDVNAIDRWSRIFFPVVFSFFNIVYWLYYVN
T1 sequence (Q8N1C3 36-465): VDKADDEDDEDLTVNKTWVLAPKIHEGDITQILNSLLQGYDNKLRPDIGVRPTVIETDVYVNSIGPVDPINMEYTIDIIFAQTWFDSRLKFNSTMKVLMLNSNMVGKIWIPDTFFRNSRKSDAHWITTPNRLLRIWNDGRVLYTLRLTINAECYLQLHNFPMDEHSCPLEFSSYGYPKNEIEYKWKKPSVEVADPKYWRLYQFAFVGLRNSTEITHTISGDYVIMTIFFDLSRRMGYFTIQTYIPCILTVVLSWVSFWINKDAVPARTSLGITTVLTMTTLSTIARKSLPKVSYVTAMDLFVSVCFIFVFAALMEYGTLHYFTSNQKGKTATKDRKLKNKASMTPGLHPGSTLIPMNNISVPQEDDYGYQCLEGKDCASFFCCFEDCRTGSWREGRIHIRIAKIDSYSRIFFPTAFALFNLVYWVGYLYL
As to the kind of experiment: Radioligand binding assay, [3H]RO7239181 competition, HEK293F membranes. The arrangement: signal peptide of human GABAA α5 subunit (Met1 to Ser31), replacing the α2 signal peptide (N); expressed in transfected cells; host or cells: HEK293F cells (ThermoFisher R79007), membranes. The method, then: The affinity of compounds at GABAA γ1 subunit-containing receptors was measured by competition for [^3H]RO7239181 (67.3 Ci/mmol; Roche) binding to membranes from HEK293F cells (ThermoFisher R79007) expressing human (transiently transfected) receptors of composition […], α2β2γ1, α1β2γ1.
Harvested pellets from HEK293F cells expressing the different GABAA receptor subtypes were resuspended in Mannitol Buffer pH 7.2-7.4 (Mannitol 0.29M, Triethylamine 10 mM, Acetic acid 10 mM, EDTA 1 mM plus protease inhibitors (20 tablets Complete, Roche Diagnostics Cat. No. 05 056 489 001 per liter)), washed two times and then resuspended at 1:10 to 1:15 dilution in the same buffer. Cell disruption was performed by stirring the suspension in a Parr vessel #4637 at 435 psi for 15 minutes, and then the suspensions were centrifuged at 1000×g for 15 minutes at 4° C. (Beckman Avanti J-HC; rotor JS-4.2). The supernatant (S1) was transferred in a 21 Schott flask and the pellet (P1) was resuspended with Mannitol Buffer up to 175 ml. The resuspended pellet was transferred into a 250 ml Corning centrifugal beaker and centrifuged at 1500×g for 10 minutes at 4° C. (Beckman Avanti J-HC; rotor JS-4.2). The supernatant (S1) was then transferred in the 21 Schott flask and the pellet was discarded. The supernatants (S1) were centrifuged in 500 ml Beckman polypropylene centrifugal beaker at 15′000×g for 30 minutes at 4° C. (Beckman Avanti J-20 XP; rotor JLA-10.500). The pellet (P2) was resuspended with Mannitol Buffer 1:1 and frozen at −80° C. The supernatant (S2) was centrifuged in 100 ml Beckman polypropylene centrifugal tubes at 48000×g for 50 minutes at 4° C. (Beckman Avanti J-20 XP; rotor JA-18). The supernatant (S3) was discarded and the pellet (P3) was resuspended with 1:1 Mannitol Buffer. The P2 and P3 protein concentration was determined with the BIORAD Standard assay method with bovine serum albumin as standard and measured on the NANO-Drop 1000. The membrane suspension was aliquots (500 μl per tube) and stored at −80° C. until required. Membrane homogenates were resuspended and polytronised (Polytron PT1200E Kinematica AG) in Potassium Phosphate 10 mM, KCl 100 mM binding buffer at pH 7.4 to a final assay concentration determined with a previous experiment.
Assays were incubated to equilibrium for 1 hour at 4° C. and then, membranes were filtered onto unifilter (96-well white microplate with bonded GF/C filters preincubated 20-50 minutes in 0.3% Polyethylenimine) with a Filtermate 196 harvester (Packard BioScience) and washed 4 times with cold Potassium Phosphate 10 mM pH 7.4, KCl 100 mM binding buffer. After drying, filter-retained radioactivity was detected by liquid scintillation counting. Ki values were calculated using Excel-Fit (Microsoft) and are the means of two determinations.
`Cc1ccc2c(c1Cl)C(c1c(F)cccc1F)=NCc1n[nH]c(=O)n1-2` [Example 16, 7-chloro-6-(2,6-difluorophenyl)-8-methyl-2,4-dihydro-[1,2,4]triazolo[4,3-a][1,4]benzodiazepin-1-one] gave a Ki of 26.5 nM.
To `Cc1ccc2c(c1Cl)C(c1c(F)cccc1F)=NCc1nncn1-2` [Example 17, 7-chloro-6-(2,6-difluorophenyl)-8-methyl-4H-[1,2,4]triazolo[4,3-a][1,4]benzodiazepine] belongs 19.8 nM.
To `Fc1ccccc1C1=NCc2nnc(-c3ccncn3)n2-c2ccc(Cl)c(Cl)c21` [Example 18, 7,8-dichloro-6-(2-fluorophenyl)-1-pyrimidin-4-yl-4H-[1,2,4]triazolo[4,3-a][1,4]benzodiazepine] belongs 21.6 nM; to `COCCc1nnc2n1-c1ccc(Cl)c(Cl)c1C(c1c(F)cccc1F)=NC2` [Example 19, 7,8-dichloro-6-(2,6-difluorophenyl)-1-(2-methoxyethyl)-4H-[1,2,4]triazolo[4,3-a][1,4]benzodiazepine], 26 nM; to `Cc1ccc2c(c1Cl)C(c1c(F)cccc1F)=NCc1nnc(C)n1-2` [Example 20, 7-chloro-6-(2,6-difluorophenyl)-1,8-dimethyl-4H-[1,2,4]triazolo[4,3-a][1,4]benzodiazepine], 23.8 nM.
To `CC(F)(F)c1ccc2c(c1Cl)C(c1c(F)cccc1F)=NCc1nncn1-2` [Example 21, 7-chloro-8-(1,1-difluoroethyl)-6-(2,6-difluorophenyl)-4H-[1,2,4]triazolo[4,3-a][1,4]benzodiazepine] belongs 52 nM.
As to `Cc1nnc2n1-c1ccc(C(C)(F)F)c(Cl)c1C(c1c(F)cccc1F)=NC2` [Example 22, 7-chloro-8-(1,1-difluoroethyl)-6-(2,6-difluorophenyl)-1-methyl-4H-[1,2,4]triazolo[4,3-a][1,4]benzodiazepine], the Ki was 37.4 nM.
To `Fc1cccc(F)c1C1=NCc2nncn2-c2ccc(C(F)F)c(Cl)c21` [Example 23, 7-chloro-8-(difluoromethyl)-6-(2,6-difluorophenyl)-4H-[1,2,4]triazolo[4,3-a][1,4]benzodiazepine] belongs 54.5 nM; to `Cc1nnc2n1-c1ccc(Br)c(Cl)c1C(c1ncccc1F)=NC2` [Example 24, 8-bromo-7-chloro-6-(3-fluoro-2-pyridyl)-1-methyl-4H-[1,2,4]triazolo[4,3-a][1,4]benzodiazepine], 24.3 nM; to `Cc1nnc2n1-c1ccc(C(F)F)c(Cl)c1C(c1c(F)cccc1F)=NC2` [Example 25, 7-chloro-8-(difluoromethyl)-6-(2,6-difluorophenyl)-1-methyl-4H-[1,2,4]triazolo[4,3-a][1,4]benzodiazepine], 49.2 nM.
To `O=c1[nH]nc2n1-c1ccc(Br)c(Cl)c1C(c1ccccc1F)=NC2` [Example 26, 8-bromo-7-chloro-6-(2-fluorophenyl)-2,4-dihydro-[1,2,4]triazolo[4,3-a][1,4]benzodiazepin-1-one] belongs 31.6 nM; to `Fc1ccccc1C1=NCc2nnc(-c3cccnn3)n2-c2ccc(C(F)(F)F)c(Cl)c21` [Example 27, 7-chloro-6-(2-fluorophenyl)-1-pyridazin-3-yl-8-(trifluoromethyl)-4H-[1,2,4]triazolo[4,3-a][1,4]benzodiazepine], 84.5 nM.
To `Cn1cc(-c2nnc3n2-c2ccc(Cl)c(Cl)c2C(c2c(F)cccc2F)=NC3)cn1` [Example 28, 7,8-dichloro-6-(2,6-difluorophenyl)-1-(1-methylpyrazol-4-yl)-4H-[1,2,4]triazolo[4,3-a][1,4]benzodiazepine] belongs 9.4 nM; to `Fc1cccnc1C1=NCc2nncn2-c2ccc(Br)c(Cl)c21` [Example 29, 8-bromo-7-chloro-6-(3-fluoro-2-pyridyl)-4H-[1,2,4]triazolo[4,3-a][1,4]benzodiazepine], 47.4 nM.
`OCc1nnc2n1-c1ccc(Br)c(Cl)c1C(c1c(F)cccc1F)=NC2` [Example 33, [8-bromo-7-chloro-6-(2,6-difluorophenyl)-4H-[1,2,4]triazolo[4,3-a][1,4]benzodiazepin-1-yl]methanol] returned an inhibition constant Ki of 12.7 nM.
With `Fc1cccc(F)c1C1=NCc2nncn2-c2ccc(I)c(Cl)c21` [Example 34, 7-chloro-6-(2,6-difluorophenyl)-8-iodo-4H-[1,2,4]triazolo[4,3-a][1,4]benzodiazepine], the inhibition constant Ki worked out at 10.1 nM.
To `Cl.NCc1nnc2n1-c1ccc(Br)c(Cl)c1C(c1c(F)cccc1F)=NC2` [Example 36, [8-bromo-7-chloro-6-(2,6-difluorophenyl)-4H-[1,2,4]triazolo[4,3-a][1,4]benzodiazepin-1-yl]methanamine hydrochloride] belongs 8.5 nM.
The result for `Fc1cccc(F)c1C1=NCc2nncn2-c2ccc(C(F)(F)F)c(Cl)c21` [Example 37, 7-chloro-6-(2,6-difluorophenyl)-8-(trifluoromethyl)-4H-[1,2,4]triazolo[4,3-a][1,4]benzodiazepine] reads 41.4 nM; that for `Fc1cccc(F)c1C1=NCc2nnc(-c3cccnn3)n2-c2ccc(C(F)(F)F)c(Cl)c21` [Example 38, 7-chloro-6-(2,6-difluorophenyl)-1-pyridazin-3-yl-8-(trifluoromethyl)-4H-[1,2,4]triazolo[4,3-a][1,4]benzodiazepine], 12.6 nM; that for `Fc1cccc(F)c1C1=NCc2nnc(-c3cccnn3)n2-c2ccc(I)c(Cl)c21` [Example 39, 7-chloro-6-(2,6-difluorophenyl)-8-iodo-1-pyridazin-3-yl-4H-[1,2,4]triazolo[4,3-a][1,4]benzodiazepine], 4.2 nM.
As to `Cc1nnc2n1-c1ccc(C(F)(F)F)c(Cl)c1C(c1c(F)cccc1F)=NC2` [Example 40, 7-chloro-6-(2,6-difluorophenyl)-1-methyl-8-(trifluoromethyl)-4H-[1,2,4]triazolo[4,3-a][1,4]benzodiazepine], the inhibitory constant (Ki) was determined as 26.8 nM.
